The subject of test [1] is M. haemo 43411. The test can be described thus: Dilution antimicrobial susceptibility test (M07-A8), M. haemolytica. The conditions noted are these: Mannheimia haemolytica; antibacterial activity by dilution susceptibility test, isolate 43411. The format is cell-based. Here is the method:
(§1) Compounds of the present invention were tested against an assortment of Gram-negative and Gram-positive organisms using the industrial standard techniques described in Methods for Dilution Antimicrobial Susceptibility Tests for Bacteria That grow Aerobically; Approved Standard-Eighth Edition, […]-A8, Vol. 29 No. 2 Replaces […]-A7 Vol. 26 No. 2. […] When comparing the activity against these isolates with that of the marketed human health drug of cefepime (screened in the same panel), the exemplified compounds of the present invention show >200 times more selectivity over E. coli.

For test [2], the system named is P. multo 43719. The test can be described thus: Dilution antimicrobial susceptibility test (M07-A8), P. multocida. The conditions noted are these: Pasteurella multocida; antibacterial activity by dilution susceptibility test, isolate 43719. It counts as cell-based. Here is the method: as §1
The subject of test [3] is E. coli 25922. Put plainly: Dilution antimicrobial susceptibility test (M07-A8), E. coli. The format is cell-based, Escherichia coli. The following applies: for MIC: Escherichia coli, antibacterial activity by dilution susceptibility test, isolate 25922; for E. coli/P. multocida: selectivity for P. multocida over E. coli (ratio of the two values). As for the experimental part:
as §1

The structures appear in SMILES notation. Converted amounts (≈) assume the structure as drawn.

Turning to `CO/N=C(\C(=O)N[C@@H]1C(=O)N2C(C(=O)O)=C(Cc3ccc(CSC(C)=O)cc3C)CS[C@H]12)c1csc(N)n1` [Example 2, (6R,7R)-3-{4-[(acetylsulfanyl)methyl]-2-methylbenzyl}-7-{[(2Z)-2-(2-amino-1,3-thiazol-4-yl)-2-(methoxyimino)acetyl]amino}-8-oxo-5-thia-1-azabicyclo[4.2.0]oct-2-ene-2-carboxylic acid], the MIC in test [1] is 0.25 µg/mL (≈ 0.434 µM); in test [2] it was 0.06 µg/mL (≈ 0.104 µM); in test [3] it was 32 µg/mL (≈ 55.6 µM). In addition, in test [3], the “E. coli/P. multocida” value was determined as 533.
As to `CO/N=C(\C(=O)N[C@@H]1C(=O)N2C(C(=O)O)=C(Cc3c(C)cc(CSC(C)=O)cc3C)CS[C@H]12)c1csc(N)n1` [Example 6, (6R,7R)-3-{4-[(acetylsulfanyl)methyl]-2,6-dimethylbenzyl}-7-{[(2Z)-2-(2-amino-1,3-thiazol-4-yl)-2-(methoxyimino)acetyl]amino}-8-oxo-5-thia-1-azabicyclo[4.2.0]oct-2-ene-2-carboxylic acid], the MIC in test [1] was determined as 0.5 µg/mL (≈ 0.848 µM); in test [2], 0.25 µg/mL (≈ 0.424 µM); in test [3], 32 µg/mL (≈ 54.3 µM). In addition, the “E. coli/P. multocida” value in test [3] was 128.
Taken in the same sequence, the figures for `CO/N=C(\C(=O)N[C@@H]1C(=O)N2C(C(=O)O)=C(Cc3cccc(S(=O)(=O)N(C)C)c3)CS[C@H]12)c1csc(N)n1` [Example 25, (6R,7R)-7-{[(2Z)-2-(2-amino-1,3-thiazol-4-yl)-2-(methoxyimino)acetyl]amino}-3-[3-(dimethylsulfamoyl)benzyl]-8-oxo-5-thia-1-azabicyclo[4.2.0]oct-2-ene-2-carboxylic acid] were 0.008 µg/mL (≈ 0.0138 µM), 0.008 µg/mL (≈ 0.0138 µM), 8 µg/mL (≈ 13.8 µM) and 1000.
Taken in the same sequence, the figures for `CO/N=C(\C(=O)N[C@@H]1C(=O)N2C(C(=O)O)=C(Cc3cc(NC(=O)CSC(C)=O)ccc3C)CS[C@H]12)c1csc(N)n1` [Example 8, (6R,7R)-3-(5-{[(acetylsulfanyl)acetyl]amino}-2-methylbenzyl)-7-{[(2Z)-2-(2-amino-1,3-thiazol-4-yl)-2-(methoxyimino)acetyl]amino}-8-oxo-5-thia-1-azabicyclo[4.2.0]oct-2-ene-2-carboxyl is acid] were 0.06 µg/mL (≈ 0.097 µM), 0.06 µg/mL (≈ 0.097 µM), 16 µg/mL (≈ 25.9 µM) and 266.
With `CO/N=C(\C(=O)N[C@@H]1C(=O)N2C(C(=O)O)=C(Cc3cccc(NC(=O)CSC(C)=O)c3C)CS[C@H]12)c1csc(N)n1` [Example 7, (6R,7R)-3-(3-{[(acetylsulfanyl)acetyl]amino}-2-methylbenzyl)-7-{[(2Z)-2-(2-amino-1,3-thiazol-4-yl)-2-(methoxyimino)acetyl]amino}-8-oxo-5-thia-1-azabicyclo[4.2.0]oct-2-ene-2-carboxyl is acid], the MIC in test [1] stood at 0.06 µg/mL (≈ 0.097 µM); in test [2] it was 0.06 µg/mL (≈ 0.097 µM); in test [3] it was 16 µg/mL (≈ 25.9 µM). Besides, in test [3], the “E. coli/P. multocida” value is recorded as 266.
As to `CO/N=C(\C(=O)N[C@@H]1C(=O)N2C(C(=O)O)=C(Cc3cc(NS(C)(=O)=O)cc(C)c3C)CS[C@H]12)c1csc(N)n1` [Example 14, (6R,7R)-7-{[(2Z)-2-(2-amino-1,3-thiazol-4-yl)-2-(methoxyimino)acetyl]amino}-3-{2,3-dimethyl-5-[(methylsulfonyl)amino]benzyl}-8-oxo-5-thia-1-azabicyclo[4.2.0]oct-2-ene-2-carboxylic acid], the MIC is 0.06 µg/mL (≈ 0.101 µM) in test [1], 0.03 µg/mL (≈ 0.0504 µM) in test [2] and 16 µg/mL (≈ 26.9 µM) in test [3]. Also, the “E. coli/P. multocida” value in test [3] was found to be 533.
For the compound `CO/N=C(\C(=O)N[C@@H]1C(=O)N2C(C(=O)O)=C(Cc3cc(NS(C)(=O)=O)cc(OC)c3)CS[C@H]12)c1csc(N)n1` [Example 18, (6R,7R)-7-{[(2Z)-2-(2-amino-1,3-thiazol-4-yl)-2-(methoxyimino)acetyl]amino}-3-{3-methoxy-5-[(methylsulfonyl)amino]benzyl}-8-oxo-5-thia-1-azabicyclo[4.2.0]oct-2-ene-2-carboxylic acid], the MIC was determined as 0.08 µg/mL (≈ 0.134 µM) in test [1], 0.06 µg/mL (≈ 0.101 µM) in test [2] and 16 µg/mL (≈ 26.8 µM) in test [3]. Moreover, the “E. coli/P. multocida” value in test [3] is reported as 266.
As for `CCCN(C(=O)CSC(C)=O)c1ccc(CC2=C(C(=O)O)N3C(=O)[C@@H](NC(=O)/C(=N\OC)c4csc(N)n4)[C@H]3SC2)cc1` [Example 9], the values for the MIC in test [1], in test [2] and in test [3] were 0.5 µg/mL (≈ 0.773 µM), 0.25 µg/mL (≈ 0.387 µM) and 64 µg/mL (≈ 99 µM), respectively. The “E. coli/P. multocida” value in test [3] was 256.
Take `CO/N=C(\C(=O)N[C@@H]1C(=O)N2C(C(=O)O)=C(Cc3cccc(N(C)S(C)(=O)=O)c3)CS[C@H]12)c1csc(N)n1` [Example 16, (6R,7R)-7-{[(2Z)-2-(2-amino-1,3-thiazol-4-yl)-2-(methoxyimino)acetyl]amino}-3-{3-[methyl(methylsulfonyl)amino]benzyl}-8-oxo-5-thia-1-azabicyclo[4.2.0]oct-2-ene-2-carboxylic acid]: the MIC turned out to be 0.03 µg/mL (≈ 0.0517 µM) in test [1], 0.03 µg/mL (≈ 0.0517 µM) in test [2] and 16 µg/mL (≈ 27.6 µM) in test [3]. The “E. coli/P. multocida” value in test [3] is reported as 533.
For `CO/N=C(\C(=O)N[C@@H]1C(=O)N2C(C(=O)O)=C(Cc3c(C)c(CO)cc(CSC(C)=O)c3C)CS[C@H]12)c1csc(N)n1` [Example 5, (6R,7R)-3-{3-[(acetylsulfanyl)methyl]-5-(hydroxymethyl)-2,6-dimethylbenzyl}-7-{[(2Z)-2-(2-amino-1,3-thiazol-4-yl)-2-(methoxyimino)acetyl]amino}-8-oxo-5-thia-1-azabicyclo[4.2.0]oct-2-ene-2-carboxylic acid], the MIC was determined as 0.125 µg/mL (≈ 0.202 µM) in test [1], 0.06 µg/mL (≈ 0.0968 µM) in test [2] and 32 µg/mL (≈ 51.6 µM) in test [3]. Further, in test [3], the “E. coli/P. multocida” value was 533.
For the compound `CO/N=C(\C(=O)N[C@@H]1C(=O)N2C(C(=O)O)=C(Cc3cccc(N(C)C(=O)CSC(C)=O)c3)CS[C@H]12)c1csc(N)n1` [Example 10], the MIC turned out to be 0.125 µg/mL (≈ 0.202 µM) in test [1], 0.06 µg/mL (≈ 0.097 µM) in test [2] and 32 µg/mL (≈ 51.7 µM) in test [3]. The “E. coli/P. multocida” value in test [3] is on record as 533.
On to `CO/N=C(\C(=O)N[C@@H]1C(=O)N2C(C(=O)O)=C(Cc3cc(NS(C)(=O)=O)c(C)cc3C)CS[C@H]12)c1csc(N)n1` [Example 15, (6R,7R)-7-{[(2Z)-2-(2-amino-1,3-thiazol-4-yl)-2-(methoxyimino)acetyl]amino}-3-{2,4-dimethyl-5-[(methylsulfonyl)amino]benzyl}-8-oxo-5-thia-1-azabicyclo[4.2.0]oct-2-ene-2-carboxylic acid], for which the minimal inhibitory concentration (MIC) in test [1] came out at 0.5 µg/mL (≈ 0.841 µM); in test [2], 0.125 µg/mL (≈ 0.21 µM); in test [3], 32 µg/mL (≈ 53.8 µM). In addition, the “E. coli/P. multocida” value in test [3] came out at 256.
With `CNS(=O)(=O)c1cccc(CC2=C(C(=O)O)N3C(=O)[C@@H](NC(=O)/C(=N\OC)c4csc(N)n4)[C@H]3SC2)c1` [Example 23, (6R,7R)-7-{[(2Z)-2-(2-amino-1,3-thiazol-4-yl)-2-(methoxyimino)acetyl]amino}-3-[3-(methylsulfamoyl)benzyl]-8-oxo-5-thia-1-azabicyclo[4.2.0]oct-2-ene-2-carboxylic acid], the minimal inhibitory concentration (MIC) in test [1] turned out to be 0.06 µg/mL (≈ 0.106 µM); in test [2] it was 0.125 µg/mL (≈ 0.221 µM); in test [3], 16 µg/mL (≈ 28.2 µM). For the same compound, the “E. coli/P. multocida” value in test [3] was 128.

A word on the MIC: it is the lowest concentration that inhibits growth of the organism. A low value points to a more susceptible organism.

The values are drawn from patent US8722656B2, “Cephalosporins useful as antibacterial agents” (Zoetis LLC, priority 2011, dated 2014).
